This is an account of results in US20220031680A1, “Donecopride As Neuroprotective Agent In the Treatment of Neurodegenerative Diseases” (priority 2018, published 2022).

Assay [1] concerns spinal motor neurons injured with glutamate. As to the kind of experiment: Survival and neurite network of primary spinal motor neurons after glutamate injury. The assay is classed as cell-based, rat. To be noted: glutamate 5 μM 20 min. The protocol:
(§1) Rat spinal cord motor neurons (MNs) were cultured as described by Martinou et al. (1992) Neuron. 8:737-744 and Wang et al. (2013) Hum. Mol. Genet. 22:4706-4719. Briefly, pregnant female rats of 14 days gestation (Rats Wistar; Janvier Labs France) were killed using a deep anesthesia with CO2 chamber and a cervical dislocation. Then, fetuses were removed from the uterus and immediately placed in ice-cold L15 Leibovitz medium with a 2% penicillin (10,000 U/ml) and streptomycin (10 mg/ml) solution (PS) and 1% bovine serum albumin (BSA).
Spinal cords were treated for 20 min at 37° C. with a trypsin-EDTA solution at a final concentration of 0.05% trypsin and 0.02% EDTA. The dissociation was stopped by addition of Dulbecco's modified Eagle's medium (DMEM) with 4.5 g/I glucose, containing DNAse I grade II (final concentration 0.5 mg/ml) and 10% fetal calf serum (FCS). Cells were mechanically dissociated by three forced passages through the tip of a 10-ml pipette. Cells were then centrifuged at 515×g for 10 min at 4° C. The supernatant was discarded, and the pellet was resuspended in a defined culture medium consisting of Neurobasal medium with a 2% solution of B27 supplement, 2 mmol/I L-glutamine, 2% PS solution, and 10 ng/ml brain-derived neurotrophic factor (BDNF). Viable cells were counted in a Neubauer cytometer, using the trypan blue exclusion test. Cells were seeded at a density of 20,000 per well in 96-well plates precoated with poly-L-lysine and were cultured at 37° C. in an air (95%)-CO2 (5%) incubator.
The medium was changed every 2 days. […]
(§2) Test compounds were tested in 96-well plate (n=6 culture wells per condition). The following conditions were assessed: […]
(§3) The following endpoints were automatically assessed: • Analysis of neuron survival (MAP-2 staining, number of neurons), • Analysis of neurite network (MAP-2 staining, total neurite length in μm), • Analysis of neurite network/neurons (neuronal network/number of MAP2 neurons), • Analysis of cytoplasmic TDP-43 in MAP-2 positive neurons (overlapping between MAP-2 and cytoplasmic TDP-43 in μm^2).

The next assay relates to TDP-43. As to the kind of experiment: Cytoplasmic TDP-43 in spinal motor neurons after glutamate injury. The format is cell-based, rat. The conditions noted are these: glutamate 5 μM 20 min; highest dose. The protocol:
as §1
Spinal cords were treated for 20 min at 37° C. with a trypsin-EDTA solution at a final concentration of 0.05% trypsin and 0.02% EDTA. […] Viable cells were counted in a Neubauer cytometer, using the trypan blue exclusion test. […]
as §2, §3

Assay [2] deals with rat primary GABAergic neurons under a growth factor deprivation. The assay is described as follows: Survival of GABAergic neurons after growth factor deprivation. The format is cell-based. To be noted: BDNF and GDNF deprivation 96 h. The protocol: The aim of this study was to investigate the neuroprotective effect of MR33583 (at 4 concentrations) in MSN of striatum survival after growth factor deprivation (BDNF and GDNF deprivation), an in vitro model of Huntington's disease.
Rat MSN of striatum were cultured as described by Ivkovic et al. (1999) J. Neurosci. 19:5409-5419 and Schinelli et al. (1988) J. Neurochem. 50:1900-1907. Briefly pregnant female rats of 15 days gestation were killed using a deep anesthesia with CO2 chamber and a cervical dislocation. Fetuses were collected and immediately placed in ice-cold L15 Leibovitz medium with a 2% penicillin (10,000 U/ml) and streptomycin (10 mg/ml) solution (PS) and 1% bovine serum albumin (BSA). Only a restricted ventral portion of the mesencephalic flexure was used for cell preparation as this is the region of the developing brain rich in MSN cells. These areas were treated for 20 min at 37° C. with a trypsin-EDTA solution at a final concentration of 0.05% trypsin and 0.02% EDTA. […] Viable cells were counted in a Neubauer cytometer using the trypan blue exclusion test. […]
as §2
The following read-out was investigated: Analysis of MSNs survival (GAD67 staining, number of GABAergic neurons).

For `COc1cc(N)c(F)cc1C(=O)CCC1CCN(CC2CCCCCC2)CC1` [MR36014], the “concentrations significantly improving spinal motor neurons survival” value in assay [1] (24 h) amounted to 1 nM. Moreover, in assay [1] (spinal motor neurons), the “concentrations significantly protecting the neurite network” value stood at 1 nM and the “ratio neurite network length/number of neurons” value was “not modified”.
In the case of `COc1cc(N)c(F)cc1C(=O)CCC1CCN(CC2CCCC2)CC1` [MR33583], the “dose reducing the signal of TDP43 in the cytoplasm of spinal motor neurons” value in the assay with TDP-43 amounted to 100 nM. In addition, the “concentration with significant neuroprotective effect (survival of GABAergic neurons)” value in assay [2] turned out to be 50 nM.
